Assay results: paper PMC3544846, “Triphenylmethane Derivatives Have High In Vitro and In Vivo Activity against the Main Causative Agents of Cutaneous Leishmaniasis” (PLoS ONE, 2013)
Entries after “also recorded” stand apart in the source; their conditions may differ. Values belong to the compound of their own block, whether it stands above or below them.

What was measured:
[1] = system: L. (L.) amazonensis promastigotes; experiment: Promastigotes assay, L. (L.) amazonensis; type: cell-based; conditions: Leishmania amazonensis, 48 h incubation, mean of triplicates
Method: (§1) Promastigotes of L. (L.) amazonensis (IFLA/BR/1967/PH-8), L. (V.) braziliensis (MHOM/BR/75/M2903), and L. (L.) major (MHOM/IL/80/Friedlin) were maintained at 23°C in Schneider's Drosophila medium (Merck, Germany) supplemented with 20% heat-inactivated fetal calf serum (FCS) (Gibco, Eggenstein, Germany), pH 7.2. The same strain of L. (L.) amazonensis was used for both in vitro and in vivo experiments.
(§2) Promastigotes of L. (L.) amazonensis, L. (V.) braziliensis or L. (L.) major with 3 or 4 days of growth were plated in 24 well plates at a plating density of 1×10^6 parasites/mL in Schneider's medium supplemented with 20% FCS, pH 7.2. Drugs were diluted at the same medium and added to a parasite suspension in different concentrations, in triplicate. After 48 h of incubation, the parasites were counted and compared to the controls containing parasites in the absence of drugs. The drug concentration corresponding to 50% of the parasite growth inhibition was expressed as IC50. Three independent experiments were performed to confirm the results. Data are presented as mean and 95% CI.

[2] = system: L (L.) amazonensis-infected BALB/c mice; experiment: In vivo topical gel treatment, parasite quantification at the site of infection by limiting dilution; design: species or system Leishmania (Leishmania) amazonensis in BALB/c mice; conditions: twice a day, 20 days; for decrease of parasite burdens versus control / parasite burdens at site of infection (number of parasites): 1% gel; for parasite burdens at site of infection (number of parasites): 3 days after treatment, control group 1×10^7 (Figure 3A); for number of parasites within the lesion: control group 2.2×10^7 (Figure 3B)
Method: The formulation of the GV and TPM 6 gel was prepared by mixing equal amounts of a 2% hydroxyethylcellulose gel (HEC; Natrosol 250 HR, Aqualon) and a 2% GV or TPM 6 hydroethanolic solution (mixture ethanol/water 1/5), until a homogeneous preparation had been attained. Therefore, GV and TPM 6 concentration in these formulations was 1%. The gel lower concentrations for dose-response experiments was obtained by diluting the 1% GV gel with 1% HEC gel.
BALB/c mice (females, 5–6 weeks old) were inoculated with 1×10^7 stationary growth phase promastigotes of L (L.) amazonensis through subcutaneous injections at the base of the tail, after trichotomy.
To evaluate the in vivo efficacy of GV and TPM 6, after development of ulcerated lesions (average diameter of 7 to 9 mm), BALB/c mice were divided into three groups. For treatment with TPM 6 and GV, lesions were covered with 50 µl of a gel formulation containing either 1% GV or 1% TPM 6, twice a day, for 20 days, using an Eppendorf pippetor. Control group: animals from control group were treated with the gel formulation without GV or TPM 6 (placebo). The treatment efficacy was evaluated through of the parasite quantification at the site of infection (see below).
Afterwards, a dose-effect study of GV was performed. BALB/c mice, presenting ulcerated lesions (average diameter of 7 to 9 mm), were divided into four groups, according to lesion size, to assure similar average lesion size among treated groups. The GV gel formulation was applied topically at 0.1, 0.5 or 1.0% twice a day, for 20 days. Control group: animals from control group were treated with the gel formulation without GV (placebo). The treatment efficacy was evaluated through of the parasite quantification at the site of infection (see below).
Three days after the interruption of treatment, the number of viable parasites at the site of infection was quantified by a limiting-dilution assay. Skin fragments from ulcerated lesions, were homogenized with a tissue grinder in Schneider's modified medium supplemented with 10% bovine fetal serum and 100 U/mL penicilin and 100 µg/mL streptomycin. Next, the tissue was centrifuged at 50 g for two minutes for sedimentation (Hitachi, Himac). The supernatant was separated and centrifuged again at 1700 g for 15 minutes (Express, Jouan). The pellet formed was resuspended in 1 mL of Schneider's modified medium supplemented with 10% FCS and 1% of a 100 U/mL penicillin and 100 µg/mL streptomycin solution. The homogenate was submitted to serial dilutions in duplicates in sterile 96 well culture plates and incubated at 23°C. Each well was examined for the presence of parasites, and the number of parasites was quantified by the highest dilution at which parasites could grow over a 7-day period. The lowest dilution that parasites were detected was 10^−1, which was considered the limit of quantification.

[3] = Cytotoxicity MTT assay on macrophages; type: cell-based; conditions: mouse, BALB/c peritoneal macrophages, 68 h + 4 h
Method: To evaluate the toxicity of selected compounds, an in vitro cytotoxicity assay on macrophages from BABL/c mice was performed through 3-(4,5-dimethyithiazol-2-yl)-2,5- diphenyltetrazolium bromide (MTT) (Sigma, Poole, United Kingdom) assay. Briefly, peritoneal macrophages from BALB/c mice were harvested, as described previously and plated in 96-well-flat-bottom microplates at a plating density of 1×10^5 macrophages/well. Macrophages were allowed to adhere for 2 h at 37°C and 5% CO2, at which time the medium was replaced by a fresh one and incubated over night. Then, the cells were exposed to ten points of serial dilution of TPM 1, 2, 6, 9 or GV ([…]), which were used to obtain a curve to determine the IC50. After 68 h of incubation, 10 µL of MTT (10 mg/mL) was added to each well and the plates were further incubated for 4 h. The enzymatic reaction was then stopped by addition of 100 µL of 50% isopropanol–10% sodium dodecyl sulfate solution. The optical density at 570 nm was quantified using an ELISA plate reader (BioSource, Inc., EUA). Three independent experiments, in triplicate, were performed to determine the cytotoxicity and data were expressed as mean and 95% CI. An experiment was also done to control the possibility of dye color interference on MTT assay. […] The optical density at 570 nm was measured using an ELISA plate reader (BioSource, Inc., EUA).

[4] = system: L. (L.) amazonensis intracellular amastigotes; experiment: Intracellular amastigote assay, L. (L.) amazonensis in BALB/c peritoneal macrophages; type: cell-based; conditions: Leishmania amazonensis, in Mus musculus, 72 h; for IC50: Macrophage, intracellular amastigotes in macrophages
Method: (§3) L. (L.) amazonensis and L. (V.) braziliensis promastigotes with 7–8 days and 5–6 days of growth, respectively, were harvested from cultures and added to a fresh Schneider's medium supplemented with 5% FCS, pH 6.0, and incubated at 32°C for 7 days for L. (L.) amazonensis and 4–5 days for L. (V.) braziliensis until a complete transformation to amastigote-like.
(§4) Peritoneal macrophages from BALB/c mice were harvested by washing with ice-cold RPMI 1640 medium, 4 days after induction with a 3% thioglycollate solution. Macrophages were diluted in RPMI 1640 medium (Sigma, Poole, United Kingdom) plus 10% FCS and plated in 24 well plates with a circular cover glass at a plating density of 2×10^5 macrophages/well. Macrophages were allowed to adhere for 2 h at 37°C and 5% CO2, when the medium was replaced by a fresh one and incubated overnight.
Macrophages were infected with amastigote-like parasites from L. (L.) amazonensis or L. (V.) braziliensis. The parasites were counted in a Neubauer's chamber and adjusted to a macrophage-amastigote ratio of 1∶8. Infected cultures were maintained at 37°C and 5% CO2. After 4 h, extracellular parasites were removed by washing, and a fresh medium containing either TPM compounds, no drug, or the reference drug. AmB (Fungizone®-Bristol- Meyers Squibb Pharmaceutics Ltda, Bedford, USA) was the chosen reference drug and was used at 0.2 µg/mL. After 72 h, the cover glass was removed from the well, washed in RPMI 1640 medium, set in microscope blades, fixed with methanol, and stained with Giemsa for evaluation. Under the immersion microscope, infection indexes (number of amastigotes/100× percentage of infected macrophages) were determined by counting the numbers of intracellular amastigotes in 100 macrophages. […] Each point was tested in triplicate and three independent experiments were then performed. Results are presented as mean and 95% CI [25].

[5] = system: L. (V.) braziliensis intracellular amastigotes; experiment: Intracellular amastigote assay, L. (V.) braziliensis in BALB/c peritoneal macrophages; type: cell-based, Leishmania (Viannia) braziliensis; conditions: Leishmania braziliensis, in Mus musculus, 72 h
Method: as §3, §4
Macrophages were infected with amastigote-like parasites from L. (L.) amazonensis or L. (V.) braziliensis. The parasites were counted in a Neubauer's chamber and adjusted to a macrophage-amastigote ratio of 1∶8. Infected cultures were maintained at 37°C and 5% CO2. […] Under the immersion microscope, infection indexes (number of amastigotes/100× percentage of infected macrophages) were determined by counting the numbers of intracellular amastigotes in 100 macrophages. […]

[6] = system: L. (V.) braziliensis promastigotes; experiment: Promastigotes assay, L. (V.) braziliensis; type: cell-based, Leishmania (Viannia) braziliensis; conditions: Leishmania braziliensis, 48 h incubation, mean of triplicates
Method: as §1, §2

[7] = system: L. (L.) major promastigotes; experiment: Promastigotes assay, L. (L.) major; type: cell-based; conditions: Leishmania major, 48 h incubation, mean of triplicates
Method: as §1, §2

[8] = system: BALB/c mice infected with L. (L.) amazonensis; conditions: intramuscular administration, doses equivalent to human chemotherapy; cited from earlier work
[9] = system: hamsters infected L. (V.) braziliensis; design: method as in PMID 15652330; conditions: intramuscular administration, doses equivalent to human chemotherapy; cited from earlier work
[10] = Peritoneal macrophage, control drug at 0.2 µg/ml, intracellular amastigotes, read-out: mean value of parasite growth inhibition

Compound: CCN(CC)c1ccc(C(=C2C=C(C(c3ccc(Cl)cc3)C(Cl)(Cl)Cl)C=CC2=[Cl+])c2ccc(N(CC)CC)cc2)cc1 (stereo not drawn) [TPM 10]
IC50 [1]: > 4 µM

IC50 [1]: 0.031 µM | IC50 [4]: 100 nM | IC50 ([5]; Macrophage, intracellular amastigotes in macrophages): 100 nM | IC50 [6]: 0.063 µM | IC50 [7]: 0.045 µM
Compound: CCN(CC)c1ccc(C(=C2C=CC(C)C=C2)c2ccc(N(CC)CC)cc2)cc1 (stereo not drawn) [TPM 6]
decrease of parasite burdens versus control [2]: three orders of magnitude | parasite burdens at site of infection (number of parasites) [2]: 1×10^4 | IC50 at 68 h [3]: 4160 nM

Compound: C[C@@H]1[C@H](O)[C@@H](C)/C=C/C=C/C=C/C=C/C=C/C=C/C=C/[C@H](O[C@@H]2O[C@H](C)[C@@H](O)[C@H](N)[C@@H]2O)C[C@@H]2O[C@](O)(C[C@@H](O)C[C@@H](O)[C@H](O)CC[C@@H](O)C[C@@H](O)CC(=O)O[C@H]1C)C[C@H](O)[C@H]2C(=O)O [AmB, amphotericin B]
inhibition at 0.2 µg/mL [4, 10]: 99.5% | inhibition at 0.2 µg/mL [5, 10]: 98%

IC50 [1]: > 1 µM
Compound: CCN(CC)c1ccc(C(=C2C=C(Cl)C=CC2=[Cl+])c2ccc(N(CC)CC)cc2)cc1 [TPM 3]

Compound: meglumine antimoniate [Glucantime]
reduction in lesions size [8]: did not lead to significant reductions in lesions size | reduction in lesions size [9]: did not lead to significant reductions in lesions size

IC50 [1]: 0.025 µM | IC50 [4]: 170 nM | IC50 [7]: 0.034 µM
Compound: CN(C)c1ccc(C(=C2C=CC(=[N+](C)C)C=C2)c2ccc(N(C)C)cc2)cc1 [GV, gentian violet]
decrease of parasite burdens versus control [2]: complete elimination of parasites | parasite burdens at site of infection (number of parasites) [2]: no parasites were found | number of parasites within the lesion ([2]; GV gel 0.1%): 2.2×10^6 | number of parasites within the lesion ([2]; GV gel 0.5%): 2.62×10^5 | number of parasites within the lesion ([2]; GV gel 1%): parasites were not detected; also recorded: complete elimination of parasite burden | IC50 at 68 h [3]: 4030 nM

IC50 [1]: > 5 µM
Compound: CN(C)c1ccc(C(=C2C=CC(c3cnc(-c4ccc(-c5ncc(-c6ccccc6)o5)cc4)o3)C=C2)c2ccc(N(C)C)cc2)cc1 (stereo not drawn) [TPM 7]
